How the values were obtained:
[1] = rats, 1-month GLP toxicology study; cited from earlier work
[2] = system: CD69 expression; set-up: method as in PMID 27583770; conditions: in vitro; read-out: IC50 of CD69 inhibition derived from in vitro evaluation; cited from earlier work
[3] = Effect of BMS-986142 on single-dose plasma PK of MTX (DDI); type: in vivo, human; conditions: BMS-986142 350 mg QD, MTX 7.5 mg single dose
Description: Blood samples for the measurement of BMS-986142 were collected up to 168 h after dosing of BMS-986142 on day 1 for participants in SAD. In MAD, blood samples were collected up to 24 h on day 1 and up to 120 h on day 14 (the last day of treatment). Blood samples for the measurement of MTX were collected up to 48 h after dosing of MTX on days 1 and 8.
Plasma samples were analyzed for BMS-986142 levels with a validated method using liquid chromatography tandem mass spectrometry (LC-MS/MS) detection. The analyte was extracted from 50 μL of plasma using a liquid–liquid extraction method. Methyl tert-butyl ether was used as the extraction solvent. The lower limit of quantification (LLOQ) was 1.00 ng/mL in plasma. Plasma samples were analyzed for methotrexate levels using LC-MS/MS detection. Analytes were isolated from 50 μL plasma through solid phase extraction using Waters Oasis MAX, 10-mg, 96-well SPE plates. The final extract was analyzed using LC-MS/MS detection. LLOQ was 1.00 ng/mL in plasma. Detailed methodology quantitating the concentration level of BMS-986142 and MTX is provided in Online Resource 10.
Individual subject pharmacokinetic parameters for BMS-986142 and MTX were derived by a non-compartmental method using validated PK software (WinNonLin version 6.3; Pharsight Corporation, Mountain View, CA, USA). The following PK parameters for BMS-986142 and MTX were derived from plasma concentration versus time data: maximum observed plasma concentration (Cmax); minimum observed plasma concentration (Cmin); time to maximum observed plasma concentration (Tmax); area under the plasma concentration-time curve from time zero to the time of the last quantifiable concentration (AUC(0-T)), from time zero extrapolated to infinite time (AUC(inf)), and in one dosing interval (AUC(TAU)); terminal plasma half-life (T1/2); and AUC accumulation index (AI_AUC). AI_AUC was calculated to divide AUC(TAU) on day 14 by AUC(TAU) on day 1.
Statistical analyses were conducted to assess the effect of coadministration of BMS-986142 on the PK of MTX. For all treatment comparisons, a linear mixed-effect model was fitted to the log-transformed PK parameters Cmax, AUC(0-T), and AUC(inf). Point estimates and 90% CIs for differences on the log-scale were exponentiated to obtain estimates for geometric mean ratios (GMRs) and respective 90% CIs on the original scale. Sample size determination is based on consideration of the precision of the estimate of the GMRs of AUCs of MTX with and without BMS-986142. With 9 evaluable subjects, there will be an 80% probability that the 90% CI of AUC(INF) GMR will be within 89.9 to 111.2% of the point estimate. These precision estimates are based on an assumption that Cmax and AUC(INF) of MTX are log-normally distributed with intrasubject CV of 14.67 and 10.38%, respectively, as calculated from Namour et al..

[4] = 12-lead ECG, baseline-corrected QTcF; type: in vivo, human; conditions: for Maximum change from baseline in QTcF interval >30-≤60 msec / Maximum change from baseline in QTcF interval >60 msec / Maximum change from baseline in QTcF interval ≤30 msec: n = 6
Description: Participants were monitored for adverse events (AEs) throughout the study. Clinical laboratory tests, vital sign measurements, 12-lead ECGs, and physical examinations were performed at selected times throughout the dosing interval. Safety data was recorded in the participants’ medical records, and assessments were performed for emergent AEs or serious AEs (SAEs). For all AEs, causal relationship to the study drug was determined by an investigator. QT signals obtained from 12-lead ECGs were corrected by heart rate using Fridericia’s formula (QTcF). Baseline-corrected QTcF (∆QTcF) were evaluated to determine QT elongation.

## Cc1c(-c2c(F)cc(C(N)=O)c3[nH]c4c(c23)CC[C@H](C(C)(C)O)C4)cccc1-n1c(=O)c2cccc(F)c2n(C)c1=O [BMS-986142, 6-fluoro-5-(R)-(3-(S)-(8-fluoro-1-methyl-2,4-dioxo-1,2-dihydroquinazolin-3(4H)-yl)-2-methylphenyl)-2-(S)-(2-hydroxypropan-2-yl)-2,3,4,9-tetrahydro-1H-carbazole-8-carboxamide]
[1]
  Steady-state exposure (AUC) at NOAEL: 22,920 ng h/mL
[2]
  IC50: 90 nM
[3]
  Effect on the pharmacokinetics of MTX: did not affect the pharmacokinetics of MTX
[4]; MAD 25 mg
  Maximum change from baseline in QTcF interval >30-≤60 msec: 0 N (%)
  Maximum change from baseline in QTcF interval >60 msec: 0 N (%)
  Maximum change from baseline in QTcF interval ≤30 msec: 6 (100) N (%)
[4]; MAD 75 mg
  Maximum change from baseline in QTcF interval >30-≤60 msec: 0 N (%)
  Maximum change from baseline in QTcF interval >60 msec: 0 N (%)
  Maximum change from baseline in QTcF interval ≤30 msec: 6 (100) N (%)
[4]; MAD 200 mg
  Maximum change from baseline in QTcF interval >30-≤60 msec: 0 N (%)
  Maximum change from baseline in QTcF interval >60 msec: 0 N (%)
  Maximum change from baseline in QTcF interval ≤30 msec: 6 (100) N (%)
[4]; MAD 350 mg
  Maximum change from baseline in QTcF interval >30-≤60 msec: 0 N (%)
  Maximum change from baseline in QTcF interval >60 msec: 0 N (%)
  Maximum change from baseline in QTcF interval ≤30 msec: 6 (100) N (%)
[4]; SAD 5 mg
  Maximum change from baseline in QTcF interval >30-≤60 msec: 0 N (%)
  Maximum change from baseline in QTcF interval >60 msec: 0 N (%)
  Maximum change from baseline in QTcF interval ≤30 msec: 6 (100) N (%)
[4]; SAD 15 mg
  Maximum change from baseline in QTcF interval >30-≤60 msec: 0 N (%)
  Maximum change from baseline in QTcF interval >60 msec: 0 N (%)
  Maximum change from baseline in QTcF interval ≤30 msec: 6 (100) N (%)
[4]; SAD 50 mg
  Maximum change from baseline in QTcF interval >30-≤60 msec: 0 N (%)
  Maximum change from baseline in QTcF interval >60 msec: 0 N (%)
  Maximum change from baseline in QTcF interval ≤30 msec: 6 (100) N (%)
[4]; SAD 100 mg
  Maximum change from baseline in QTcF interval >30-≤60 msec: 0 N (%)
  Maximum change from baseline in QTcF interval >60 msec: 0 N (%)
  Maximum change from baseline in QTcF interval ≤30 msec: 6 (100) N (%)
[4]; SAD 300 mg
  Maximum change from baseline in QTcF interval >30-≤60 msec: 0 N (%)
  Maximum change from baseline in QTcF interval >60 msec: 0 N (%)
  Maximum change from baseline in QTcF interval ≤30 msec: 6 (100) N (%)
[4]; SAD 900 mg
  Maximum change from baseline in QTcF interval >30-≤60 msec: 0 N (%)
  Maximum change from baseline in QTcF interval >60 msec: 0 N (%)
  Maximum change from baseline in QTcF interval ≤30 msec: 6 (100) N (%)
[4]; SAD and MAD
  Increase from baseline in maximum post-dose QTcF: No participants showed greater than 30 ms increase from baseline
